The source of these data is patent US12187684B2, “Benzimidazole derivatives as modulators of retinoid-related orphan receptor gamma (RORγ) and pharmaceutical use thereof” (Jiangsu Hengrui Medicine Co., Ltd., priority 2018, dated 2025).

The target of one experiment is T1, RORγ LBD-GST tagged (Homo sapiens, UniProt P51449).
T1 construct: RORγ LBD-GST tagged (Cat No. RORC-114H, Creative Biomart); purchased Creative Biomart RORC-114H
T1 sequence (P51449 269-508 limits assumed): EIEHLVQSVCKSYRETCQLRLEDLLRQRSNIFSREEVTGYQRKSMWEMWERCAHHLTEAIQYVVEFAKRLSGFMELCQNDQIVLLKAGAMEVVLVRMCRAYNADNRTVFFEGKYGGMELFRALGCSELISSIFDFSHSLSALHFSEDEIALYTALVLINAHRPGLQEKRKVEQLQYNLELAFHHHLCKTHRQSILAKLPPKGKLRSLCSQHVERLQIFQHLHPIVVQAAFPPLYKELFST
The experiment in a line: LanthaScreen TR-FRET RORγ coactivator assay. The format is biochemical. The following applies: Fluorescein-D22 coactivator peptide, 1 hour room temperature. In a few lines: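 GST-tagged RORγ LBD (25 ng/reaction) was incubated in coregulator buffer D with 5 mM DTT and compound (top 3 μM, 7-fold steps, 7 doses), then with a mix containing 0.6 μM fluorescein-D22 peptide and 8 nM Tb anti-GST antibody. After 1 h at room temperature in the dark, 520/495 nm TR-FRET was read. IC50 came from log concentration versus percent inhibition.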

For experiment [1], the system named is IL-17 production, human PBMC cells. Nature of the experiment: IL-17 production assay using human PBMC. Type of experiment: cell-based. The following applies: human PBMC stimulated by cytostim for 3 days, IL-17 ELISA of supernatant. The text has this:
Test Example 2. IL-17 Production Assay Using Human PBMC
• 1. Human PBMC cells (Cat No. 70025.1, Zenbio) • 2. Lymphocyte medium (Cat No. LYMPH-1, Zenbio) • 3. TexMACS (Cat No. 130-097-196, Miltenyi) • 4. Cytostim-human (Cat No. 1130-092-173, Miltenyi) • 5. Human IL-17 ELISA (Cat No. D1700, R&D systems) • 6. Tecan Infinite M1000 plate reader (Tecan)
Experimental Procedure for IL-17 Production Assay
Cryopreserved peripheral blood human mononuclear cells (PBMCs) were rapidly thawed in warmed Lymphocyte media, and centrifuged cell suspension at 1000 rpm for 10 minutes. The supernatant was removed, and the cell pellets were gently resuspended in TexMACS media.
Human PBMC cells in TexMACS media were plated at 1×10^5 each well in triplicate. The test compounds at various concentrations or vehicle control (<0.5% DMSO) were added into cell culture. The cells were stimulated by cytostim (10 μL/mL) for 3 days in a humidified, 5% CO2 incubator at 37° C.
After incubation, the cell culture supernatant was harvested, and then removed particulates by centrifugation. Human IL-17 in the supernatant was measured using human IL-17 ELISA kit according to the manufacturer's protocol. IC50 values were determined using GraphPad Prism by plotting the compounds concentration versus percent inhibition.
On the technique in general: In an ELISA, binding on a coated surface is turned into a signal by an enzyme label.

In general, IC50 refers to the concentration needed to halve the response being measured. On to `CCS(=O)(=O)c1ccc(C(O)c2nc3c(Cl)c(-c4ccccc4OCC(F)(F)F)c(Cl)cc3[nH]2)cc1` (stereo not drawn) [Example 33, (4,6-dichloro-5-(2-(2,2,2-trifluoroethoxy)phenyl)-1H-benzo[d]imidazol-2-yl)(4-(ethylsulfonyl)phenyl)methanol], for which the IC50 on RORγ LBD-GST tagged was determined as 0.031 µM; in experiment [1] (Homo sapiens, PBMC, 72 h), 0.015 µM.
For `O=S(=O)(CC1CC1)c1ccc(C(CCN2CCOCC2)c2nc3cc(-c4ccccc4OC(F)F)c(Cl)cc3[nH]2)cc1` (single isomer, unassigned) [164 or 165 made from Int-164A, (R or S)-4-(3-(6-chloro-5-(2-(difluoromethoxy)phenyl)-1H-benzo[d]imidazol-2-yl)-3-(4-((cyclopropylmethyl)sulfonyl)phenyl)propyl)morpholine] the same measures were 1.25 µM and 0.28 µM.
Turning to `NC(=O)CC(c1ccc(S(=O)(=O)CC2CC2)cc1)c1nc2cc(Cl)c(-c3ccccc3OC(F)F)c(Cl)c2[nH]1` (stereo not drawn) [Example 158, 3-(4-((cyclopropylmethyl)sulfonyl)phenyl)-3-(5,7-dichloro-6-(2-(difluoromethoxy)phenyl)-1H-benzo[d]imidazol-2-yl)propanamide], the IC50 on RORγ LBD-GST tagged came to 0.005 µM; in experiment [1] (Homo sapiens, PBMC, 72 h) it was 0.187 µM.
With `O=S(=O)(CC1CC1)c1ccc(C(CCO)c2nc3cc(-c4ccccc4OC(F)F)c(Cl)cc3[nH]2)cc1` (single isomer, unassigned) [the longer retention time of 155 and 156, 3-(6-chloro-5-(2-(difluoromethoxy)phenyl)-1H-benzo[d]imidazol-2-yl)-3-(4-((cyclopropylmethyl)sulfonyl)phenyl)propan-1-ol], the IC50 turned out to be 0.074 µM against RORγ LBD-GST tagged and 0.026 µM in experiment [1].
As for `CCS(=O)(=O)c1ccc(C(CO)c2nc3c(Cl)c(-c4ccccc4OC(F)(F)F)c(Cl)cc3[nH]2)cc1` (stereo not drawn) [Example 4, 2-(4,6-dichloro-5-(2-(trifluoromethoxy)phenyl)-1H-benzo[d]imidazol-2-yl)-2-(4-(ethylsulfonyl)phenyl)ethanol], the IC50 worked out at 0.16 µM at RORγ LBD-GST tagged and 0.053 µM in experiment [1] (Homo sapiens, PBMC, 72 h).
As for `CCS(=O)(=O)c1ccc(Cc2nc3c(Cl)c(-c4ccccc4CCC(F)(F)F)c(Cl)cc3[nH]2)cc1` [Example 34, 4,6-dichloro-2-(4-(ethylsulfonyl)benzyl)-5-(2-(3,3,3-trifluoropropyl)phenyl)-1H-benzo[d]imidazole], the IC50 on RORγ LBD-GST tagged was found to be 0.016 µM; in experiment [1] (Homo sapiens, PBMC, 72 h), 0.049 µM.
On to `CC(=O)NCCC(c1ccc(S(=O)(=O)CC2CC2)cc1)c1nc2cc(-c3ccccc3OC(F)F)c(Cl)cc2[nH]1` (single isomer, unassigned) [166 or 167 made from Int-164B, (R or S)—N-(3-(6-chloro-5-(2-(difluoromethoxy)phenyl)-1H-benzo[d]imidazol-2-yl)-3-(4-((cyclopropylmethyl)sulfonyl)phenyl)propyl)acetamide], for which the IC50 against RORγ LBD-GST tagged was 0.047 µM; in experiment [1], 0.072 µM.
For the compound `CCS(=O)(=O)c1ccc(C(CO)c2nc3c(Cl)c(-c4ccccc4OC(C)C)c(Cl)cc3[nH]2)cc1` (stereo not drawn) [Example 9, 2-(4,6-dichloro-5-(2-isopropoxyphenyl)-1H-benzo[d]imidazol-2-yl)-2-(4-(ethylsulfonyl)phenyl)ethanol], the IC50 on RORγ LBD-GST tagged stood at 0.475 µM; in experiment [1] (Homo sapiens, PBMC, 72 h), 0.01 µM.
For `O=S(=O)(CC1CC1)c1ccc(C(CO)c2nc3c(Cl)c(-c4ccccc4C(F)(F)F)c(Cl)cc3[nH]2)cc1` (stereo not drawn) [Example 70, 2-(4-((cyclopropylmethyl)sulfonyl)phenyl)-2-(4,6-dichloro-5-(2-(trifluoromethyl)phenyl)-1H-benzo[d]imidazol-2-yl)ethanol], the IC50 at RORγ LBD-GST tagged was found to be 0.014 µM; in experiment [1] (Homo sapiens, PBMC, 72 h), 0.006 µM.
